Results published in PMC11555526, “Development of 2-Aminoadenine-Based Proteolysis-Targeting Chimeras (PROTACs) as Novel Potent Degraders of Monopolar Spindle 1 and Aurora Kinases” (ACS Pharmacology & Translational Science, 2024).

Assays:
[1] = target: T1, AURKB (MV4-11^AURKB-HiBiT cells) (Homo sapiens, UniProt Q96GD4); assay: HiBiT assay, AURKB degradation; format: cell-based; design: key to Dmax (maximal degradation) AURKB: compounds with degradation less than 15% reported as “inactive”; conditions: 6 h treatment; for DC50: read-out: DC50 (half-maximal degradation concentration) AURKB
T1 construct: expressed in transfected cells; host or cells: MV4-11, lentiviral transduction (pRRL-PGK vector)
T1 sequence (Q96GD4 1-345 isoform Q96GD4-5): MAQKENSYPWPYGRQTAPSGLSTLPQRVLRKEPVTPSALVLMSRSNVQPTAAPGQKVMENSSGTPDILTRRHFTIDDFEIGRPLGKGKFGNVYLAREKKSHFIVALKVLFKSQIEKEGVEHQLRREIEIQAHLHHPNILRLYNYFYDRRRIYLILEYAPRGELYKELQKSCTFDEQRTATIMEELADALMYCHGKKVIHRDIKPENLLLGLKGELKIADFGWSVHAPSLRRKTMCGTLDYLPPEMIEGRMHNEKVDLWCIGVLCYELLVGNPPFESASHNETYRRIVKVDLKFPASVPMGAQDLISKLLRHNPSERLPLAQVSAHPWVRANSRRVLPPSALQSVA
Description: (§1) The effects of the synthesized compounds on AURKA, AURKB, and TTK mitotic kinases were then assessed in cellular systems. For this, HiBiT cell lines were generated for all three mitotic kinases. A small 11 amino acid peptide fragment of luciferase (HiBiT) was fused to the coding sequence of the proteins and stably transduced in the MV4-11 cell line (MV4-11^AURKA-HiBiT, MV4-11^AURKB-HiBiT, and MV4-11^HiBiT-TTK).
(§2) The stable cell lines MV4-11^AURKA-HiBiT, MV4-11^AURKB-HiBiT, and MV4-11^HiBiT-TTK cells were generated by lentiviral infection. Lentivirus was produced using the respective HiBiT vector, plasmids psPAX2, and pMD2.G in HEK293 cells. The virus supernatant was filtered and MV4-11 cells were doubly infected with the supernatant. The cells were selected after 48 h of infection until the control cells were dead to get the stable cell line.
(§3) The cells stably expressing HiBiT-tagged protein were seeded into 96-well plates and treated with serial dilutions of compounds for the indicated time points. At the end point, the assay was performed using the Nano-Glo HiBiT Lytic Detection System (Promega) according to the manufacturer’s instruction. Luminescence was measured on a GloMax 96 Microplate Luminometer (Promega) or a Tecan Spark Multiplate reader (Tecan). DC50 was calculated using concentrations showing sigmoidal behavior with the dose–response (four parameters) equation in Prism (GraphPad).

[2] = target: T2, AURKA (MV4-11^AURKA-HiBiT cells) (Homo sapiens, UniProt O14965); assay: HiBiT assay, AURKA degradation; format: cell-based; design: key to Dmax (maximal degradation) AURKA: compounds with degradation less than 15% reported as “inactive”; conditions: 6 h treatment, MV4-11^AURKA-HiBiT cells; for DC50: read-out: DC50 (half-maximal degradation concentration) AURKA
T2 construct: expressed in transfected cells; host or cells: MV4-11, lentiviral transduction
T2 sequence (O14965 1-403): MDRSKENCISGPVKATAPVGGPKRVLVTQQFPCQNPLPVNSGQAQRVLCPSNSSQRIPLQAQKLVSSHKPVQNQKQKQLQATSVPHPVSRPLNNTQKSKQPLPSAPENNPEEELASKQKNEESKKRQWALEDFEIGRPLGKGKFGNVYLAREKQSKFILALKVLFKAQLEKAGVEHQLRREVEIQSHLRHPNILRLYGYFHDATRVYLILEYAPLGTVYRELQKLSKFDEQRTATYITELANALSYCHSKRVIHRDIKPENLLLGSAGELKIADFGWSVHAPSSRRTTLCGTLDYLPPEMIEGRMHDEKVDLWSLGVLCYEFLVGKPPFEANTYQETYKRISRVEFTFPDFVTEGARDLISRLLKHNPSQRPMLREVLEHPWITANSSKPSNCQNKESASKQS
Description: as §1, §2, §3

[3] = target: T3, TTK (MV4-11^HiBiT-TTK cells) (Homo sapiens, UniProt P33981); assay: HiBiT assay, TTK degradation; format: cell-based; design: key to Dmax (maximal degradation) TTK: compounds with degradation less than 15% reported as “inactive”; conditions: 6 h treatment, MV4-11^HiBiT-TTK cells; for DC50: read-out: DC50 (half-maximal degradation concentration) TTK
T3 construct: expressed in transfected cells; host or cells: MV4-11, lentiviral transduction (pRRL-PGK-HiBiT entry vector)
T3 sequence (P33981 1-857): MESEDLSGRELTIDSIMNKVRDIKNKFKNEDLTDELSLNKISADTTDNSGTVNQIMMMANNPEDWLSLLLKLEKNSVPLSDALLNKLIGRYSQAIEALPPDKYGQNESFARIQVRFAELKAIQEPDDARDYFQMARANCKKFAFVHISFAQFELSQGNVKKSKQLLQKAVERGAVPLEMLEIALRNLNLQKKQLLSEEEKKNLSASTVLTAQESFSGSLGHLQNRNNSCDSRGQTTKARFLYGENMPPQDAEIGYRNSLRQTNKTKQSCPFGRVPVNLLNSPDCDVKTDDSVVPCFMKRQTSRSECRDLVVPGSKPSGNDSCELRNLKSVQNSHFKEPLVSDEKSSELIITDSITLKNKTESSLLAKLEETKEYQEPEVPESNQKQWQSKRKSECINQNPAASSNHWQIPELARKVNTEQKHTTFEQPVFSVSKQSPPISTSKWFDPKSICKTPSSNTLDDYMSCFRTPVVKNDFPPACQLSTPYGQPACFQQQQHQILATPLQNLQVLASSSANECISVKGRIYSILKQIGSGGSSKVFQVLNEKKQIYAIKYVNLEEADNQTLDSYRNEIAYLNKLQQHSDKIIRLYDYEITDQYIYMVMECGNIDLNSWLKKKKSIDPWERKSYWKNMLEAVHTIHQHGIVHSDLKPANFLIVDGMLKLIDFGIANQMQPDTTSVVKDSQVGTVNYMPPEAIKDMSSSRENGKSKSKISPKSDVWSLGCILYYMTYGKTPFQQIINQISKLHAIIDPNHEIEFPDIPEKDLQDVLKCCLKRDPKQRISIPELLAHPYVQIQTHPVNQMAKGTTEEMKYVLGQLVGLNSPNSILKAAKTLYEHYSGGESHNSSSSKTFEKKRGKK
Description: as §1, §2, §3

MV4-11 cells (naive) = assay: alamarBlue cell viability assay; format: cell-based, human; conditions: 72 h treatment, MV4-11 cells (naive); for EC50: read-out: EC50 (concentration that decreases cell viability by 50%)
Description: Finally, to study the effect of the compounds on cancer cell survival, MV4-11 cells were treated with various concentrations of the chimeras and the cell viability was assessed after 72 h. […] As opposed to the parent inhibitor MPS1-IN-3, its derivatives except 40 were not cytotoxic (Figure S7B, Table 5). […] In addition, most of the SF1-based derivatives affected the viability of MV4-11 cells in nanomolar concentrations (Table 5).
For the alamarBlue cell viability assay, cells were seeded in 96-well plates and treated with indicated concentrations of the compounds or vehicle. A few hours before the experimental end point (72 h, unless otherwise stated), the cells were incubated with the alamarBlue reagent. Finally, fluorescence (excitation: 550 nm and emission: 600 nm) or absorbance (570 nm with reference at 600 nm) was measured on a Tecan Spark Multiplate reader (Tecan).

SMILES	Dmax (maximal degradation) AURKB [1]	DC50 [1] [µM]	Dmax (maximal degradation) AURKA [2]	DC50 [2] [µM]	Dmax (maximal degradation) TTK [3]	DC50 [3] [µM]	EC50 (MV4-11 cells (naive)) [µM]	DC50 (half-maximal degradation concentration) AURKB [1]	DC50 (half-maximal degradation concentration) AURKA [2]	DC50 (half-maximal degradation concentration) TTK [3]	EC50 (concentration that decreases cell viability by 50%) (MV4-11 cells (naive))
CC(C)S(=O)(=O)c1ccccc1Nc1nc(Nc2ccc(N3CCN(CCCC(=O)Nc4cccc5c4C(=O)N(C4CCC(=O)NC4=O)C5=O)CC3)cc2)nc2[nH]cnc12 (centres unmarked) [Compound 27]	48.90%	0.27	75.10%	0.0048	52.95%	0.0891	0.091				
CC(C)S(=O)(=O)c1ccccc1Nc1nc(Nc2ccc(N3CCN(CCCCC(=O)Nc4cccc5c4C(=O)N(C4CCC(=O)NC4=O)C5=O)CC3)cc2)nc2[nH]cnc12 (centres unmarked) [Compound 28]	45.95%	0.273	69.70%	0.00485	59.05%	0.0845	0.126				
CC(C)S(=O)(=O)c1ccccc1Nc1nc(Nc2ccc(N3CCN(C(=O)CCC(=O)NCCNc4cccc5c4C(=O)N(C4CCC(=O)NC4=O)C5=O)CC3)cc2)nc2[nH]cnc12 (centres unmarked) [Compound 30]	19.90%		49.10%	0.017	27.20%	0.468	0.405	– (compounds with degradation less than 25% were not calculated and reported as “–”)			
COc1cc(N2CCC(OCC(=O)NCCNc3cccc4c3C(=O)N(C3CCC(=O)NC3=O)C4=O)CC2)ccc1Nc1nc(Nc2ccccc2S(=O)(=O)C(C)C)c2nc[nH]c2n1 (centres unmarked) [Compound 34]	inactive		inactive		inactive			– (compounds with degradation less than 25% were not calculated and reported as “–”)	– (compounds with degradation less than 25% were not calculated and reported as “–”)	– (compounds with degradation less than 25% were not calculated and reported as “–”)	— (compounds with decrease of cell viability less than 50% were not calculated and reported as “—”)
COc1cc(N2CCC(OCC(=O)NCCCNc3cccc4c3C(=O)N(C3CCC(=O)NC3=O)C4=O)CC2)ccc1Nc1nc(Nc2ccccc2S(=O)(=O)C(C)C)c2nc[nH]c2n1 (centres unmarked) [Compound 35]	inactive		inactive		inactive			– (compounds with degradation less than 25% were not calculated and reported as “–”)	– (compounds with degradation less than 25% were not calculated and reported as “–”)	– (compounds with degradation less than 25% were not calculated and reported as “–”)	— (compounds with decrease of cell viability less than 50% were not calculated and reported as “—”)
